Results published in PubChem BioAssay (NCI).
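Following 48 hours of exposure in 96-well plates, responses at five concentrations were used to interpolate endpoints linearly. Definition used: TGI = concentration required for complete inhibition of growth.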

Columns and labels:
Assay in all cases: NCI anticancer screen, dose series, 48 h
NCI-H460 lung = system: NCI-H460 lung
HL-60(TB) leukemia = system: HL-60(TB) leukemia
UACC-62 melanoma = system: UACC-62 melanoma
SK-MEL-5 melanoma = system: SK-MEL-5 melanoma
CCRF-CEM leukemia = system: CCRF-CEM leukemia
XF 498 CNS = system: XF 498 CNS
K-562 leukemia = system: K-562 leukemia
OVCAR-8 ovarian = system: OVCAR-8 ovarian
UO-31 renal = system: UO-31 renal
SF-539 CNS = system: SF-539 CNS
SNB-75 CNS = system: SNB-75 CNS
M19-MEL melanoma = system: M19-MEL melanoma
DMS 114 small cell lung = system: DMS 114 small cell lung
HCC-2998 colon = system: HCC-2998 colon
HT29 colon = system: HT29 colon
MALME-3M melanoma = system: MALME-3M melanoma
SK-MEL-2 melanoma = system: SK-MEL-2 melanoma
OVCAR-5 ovarian = system: OVCAR-5 ovarian
SN12C renal = system: SN12C renal
DLD-1 colon = system: DLD-1 colon
SK-MEL-28 melanoma = system: SK-MEL-28 melanoma
HCT-116 colon = system: HCT-116 colon
A498 renal = system: A498 renal
SF-268 CNS = system: SF-268 CNS
LOX IMVI melanoma = system: LOX IMVI melanoma
786-0 renal = system: 786-0 renal
RXF 393 renal = system: RXF 393 renal
KM20L2 colon = system: KM20L2 colon
NCI-H522 lung = system: NCI-H522 lung
TK-10 renal = system: TK-10 renal
HOP-62 NSCLC = system: HOP-62 NSCLC
HOP-92 NSCLC = system: HOP-92 NSCLC
DMS 273 small cell lung = system: DMS 273 small cell lung
HCT-15 colon = system: HCT-15 colon
OVCAR-3 ovarian = system: OVCAR-3 ovarian
MOLT-4 leukemia = system: MOLT-4 leukemia
OVCAR-4 ovarian = system: OVCAR-4 ovarian
KM12 colon = system: KM12 colon
NCI-H23 lung = system: NCI-H23 lung
IGROV1 ovarian = system: IGROV1 ovarian
SR leukemia = system: SR leukemia
SW-620 colon = system: SW-620 colon
LXFL 529 NSCLC = system: LXFL 529 NSCLC
RPMI-8226 leukemia = system: RPMI-8226 leukemia
SF-295 CNS = system: SF-295 CNS
A549 NSCLC = system: A549 NSCLC
EKVX NSCLC = system: EKVX NSCLC
SNB-19 CNS = system: SNB-19 CNS
SNB-78 CNS = system: SNB-78 CNS
UACC-257 melanoma = system: UACC-257 melanoma
M14 melanoma = system: M14 melanoma
ACHN renal = system: ACHN renal
U251 CNS = system: U251 CNS
NCI-H226 lung = system: NCI-H226 lung

Measured: TGI

CC1=C(C(=O)NCc2ccccc2)C(c2ccc(Cl)c(Cl)c2)C(C(=O)NCc2ccccc2)=C(C)N1
> 100 µM: all assays above
